Test results from patent US5624924A, “Quinobenzothiazine antineoplastic agents” (priority 1994, dated 1997).
“And” between values parts separate entries of the source, which are not always exact repeats. Identical values can stand only once. Counter-ions that a name gives are not always drawn.

Columns and labels:
P388 ascitic leukemia = test: In vivo activity against systemic tumor P388; set-up: species or system mouse; settings: 20 mg/kg IP once daily, five days; positive control
Description: Prior to testing, P388 was propagated intraperitoneally in female DBA2 mice. The ascitic tumors were intraperitoneally injected in female B6 D2 F1 mice at a concentration of 10^6 cells per mouse. The mice were treated with antiumor agents administered once daily for five consecutive days, with the antineoplastic 5-fluorouracil used as a positive control.
All drugs were administered intraperitoneally in 5% aqueous dextrose or other suitable diluent. Drug efficacy was evaluated based on prolongation of mean survival time (MST). Improvement of MST was calculated as % MST(T/C), the percent ratio of mean survival times of test (T) versus control (C) mice. Compounds having % MST(T/C) values greater than 125 are considered to have significant activity. The antitumor activity of the two compounds in the P388 systemic leukemia model is illustrated in Table 3 below.

[1] = test system: A549 human lung cancer cell line; test: In vitro cytotoxicity (MTT), A549; format: cell-based; settings: A549, 72 h, read-out: In Vitro Cytotoxicity (IC50), A549, Table 2, ADR: average of two tests
Description: (§1) Metabolic activity was measured by the cells' ability to reduce the tetrazolium dye, 3-(4,5-dimethylthiazol-2-yl)-2,5-diphenyltetrazolium bromide (MTT), to a quantifiable colored formasan derivative. Surviving cells reduce the MTT dye. The inhibitory concentrations of killing 50% of the cells (IC50 s) were calculated. Testing was in accord with the following protocol:
(§2) Test compounds and a reference antineoplastic agent, ADRIAMYCIN (doxorubicin hydrochloride), were dissolved in dimethyl sulfoxide (DMSO) and diluted, first with Earle's Balanced Salt Solution, followed by culture medium, to twice the highest concentration of the compound to be tested. From this concentrated stock, two-fold serial dilutions were prepared in 96-well microtiter trays, each well containing twice the desired final concentration of the compound. Each concentration was tested in triplicate and compared to triplicate drug-free controls.
(§3) The cells were grown in the same medium used for diluting the compounds. Adherent cells were harvested by trypsinization according to the following procedure:
(§4) After harvesting by trypsinization, viable cell counts were determined and cell density was adjusted to 25,000 cells/mL. Inoculum (0.1 mL) was then added to each well for a final concentration of 2,500 cells per well. Addition of the inoculum was used to dilute the test compounds to the desired concentration.
(§5) Microtiter trays were incubated for three days at 36° C. in a humidified atmosphere containing 5% carbon dioxide.
(§6) After three days, 20 microliters of 5 mg/mL MTT in phosphate-buffered solution were added to each well of the microtiter trays. The microtiter trays were then returned to the incubator for two to four hours to allow the surviving cells to reduce the dye. After this incubation, both the medium and the unreduced dye were removed by aspiration. DMSO was added to each well to dissolve the water-insoluble, colored end product of the dye reduction for spectrophotometric measurement at 570 nm.
(§7) The results obtained which clearly show the cytotoxicity of the compounds of Examples 5, 6, 7 and 8 against […] tumor cell lines A549, HCT-8, HT-29 and P388-D1, are illustrated in Table 1. (A549 is a human lung cancer cell line; HCT-8 is a human colon cancer cell line; HT-29 is a human colon cancer cell line; and P388-D1 is a mouse leukemia cell line.)

[2] = test system: P388-ADR(0.0), ADRIAMYCIN-resistant variant of P388; test: In vitro cytotoxicity (MTT), P388-ADR(0.0); format: cell-based; settings: Mus musculus, 72 h, inoculum grown in drug-free medium, Table 2
Description: as §1, §2, §3, §4, §5, §6
(§8) Compounds from Examples 4, 6, 8, 9 and 10 were additionally tested against human and murine tumor cell lines A549, HT-29, P388-D1, P388, P388-ADR(0.0), P388-ADR(0.1) and B16F109. (P388 is a mouse leukemia cell line similar to P388-D1, but animal-passaged; P388-ADR (0.0) is an ADRIAMYCIN-resistant variant of P388, the inoculum of which is grown in drug-free medium; P388-ADR (0.1) is an ADRIAMYCIN-resistant variant of P388, the inoculum of which is grown in medium with 0.1 mcg.ml ADRIAMYCIN; and B16F10 is a mouse melanoma.) The results are presented in Table 2; as shown in the table, the compounds of the present invention are effective cytotoxic agents even against the ADRIAMYCIN-resistant cell line P388-ADR.

B16F10 mouse melanoma = test: In vitro cytotoxicity (MTT), B16F10; format: cell-based; settings: B16-F10, 72 h, read-out: In Vitro Cytotoxicity (IC50)
Description: as §1, §2, §3, §4, §5, §6, §8

[3] = test system: HT-29 human colon cancer cell line; test: In vitro cytotoxicity (MTT), HT-29; format: cell-based; settings: HT-29, 72 h, read-out: In Vitro Cytotoxicity (IC50), HT-29, Table 2, ADR: average of two tests
Description: as §1, §2, §3, §4, §5, §6, §7

[4] = test system: P388 mouse leukemia cell line; test: In vitro cytotoxicity (MTT), P388; format: cell-based; settings: P388, 72 h, read-out: In Vitro Cytotoxicity (IC50)
Description: as §1, §2, §3, §4, §5, §6, §8

[5] = test system: C-26 colon adenocarcinoma; test: In vivo activity against C-26 implanted intraperitoneally (Example 44); set-up: species or system mouse
Description: (§9) The title compound of Example 37 above was tested against solid tumors in mice, using 1,3-bis(2-chloroethyl)-1-nitrosourea (BCNU) as a positive control. The tumor lines were M5076, an ovarian sarcoma implanted intraperitoneally (IP), and C-26, a colon adenocarcinoma, implanted intraperitoneally (IP) and subcutaneously (SC) in separate trials.
(§10) All drugs were administered in 5% aqueous dextrose or other suitable diluent. Drug efficacy was determined by prolonged survival times of the test animals or reduced tumor mass as compared to negative controls. Test groups consisted of 10 mice. Control groups consisted of 20 mice. Animals were of one sex and of similar weight. Prior to testing, the tumor cell lines were propagated in BALB/cj mice. Tumor implants were aliquots of a donor pool brei,
(§11) In the IP trials, the mean survival time (MST) of the groups of mice was determined, not counting animals surviving at the conclusion of the trial, and the mean lifespan comparison value of % MST(T/C) calculated, which value represents the ratio of treated to control group MST's expressed as a percentage.
For C-26 colon adenocarcinoma, the tumor was implanted into CD2 F1 mice, IP and SC in separate trials. For the C-26 IP trial, the tumor was implanted IP on day 0. The test compound were administered four times a day IP from day 1 to day 9 for a total of nine days. BCNU was administered four times a day on days 1, 5 and 9.

[6] = test system: C-26 colon adenocarcinoma; test: In vivo activity against C-26 implanted subcutaneously (Example 44); set-up: species or system mouse
Description: as §9, §10
For the C-26 SC trial, the tumor was implanted SC into mice on day 0. The test compound was administered four times a day IP from day 1 to day 9 for a total of nine days. BCNU was administered four times a day on days 1, 5, and 9. The mean tumor masses were determined on day 11 and day 21, and the experiment terminated on day 60. The mean tumor mass (MTM) inhibition value of % MTM(T/C) was calculated, which value represents the ratio of treated to control group MTM's expressed as a percentage.

Aqueous solubility = format: physicochemical; settings: water
Text: The effect of peptidyl substitution on the solubility of the compounds of the invention was examined by dissolving samples thereof in water.

M5076 ovarian sarcoma = test: In vivo activity against M5076 implanted intraperitoneally (Example 44); set-up: species or system mouse
Description: as §9, §10, §11
For M5076 ovarian sarcoma, the tumor was implanted IP into BDF1 mice on day 0. The test compound was administered four times a day IP from day 1 to day 9 for a total of nine days.

[7] = 10 mg/kg, compound 37 days 1-9, BCNU days 1, 5, 9
[8] = day 11, 10 mg/kg, compound 37 days 1-9, BCNU days 1, 5, 9
[9] = day 21, 10 mg/kg, compound 37 days 1-9, BCNU days 1, 5, 9

O=c1[nH]cc(F)c(=O)[nH]1 [5-Fluorouracil, 5-fluorouracil, reference compound]
% MST(T/C) (P388 ascitic leukemia): 160% and 186.67%

Cc1ccc2c(c1)Oc1c(N3CC[C@H](N)C3)c(F)cc3c(=O)c(C(=O)O)cn-2c13 [Example 18, 1-((3S)-3-aminopyrrolidin-1-yl)-2-fluoro-9-methyl-4-oxo-4H-quino[2,3,4-i,j][1,4]benzoxazine-5-carboxylic acid hydrochloride]
IC50 [1]: 0.11 µg/mL
IC50 [2]: 0.13 µg/mL
IC50 (B16F10 mouse melanoma): 0.024 µg/mL
IC50 [3]: 0.04 µg/mL
IC50 [4]: 0.047 µg/mL

NC1CCN(c2c(F)cc3c(=O)c(C(=O)N4CCOCC4)cn4c3c2Oc2ccccc2-4)C1 (stereo not drawn) [Example 29, 1-(3-aminopyrrolidin-1-yl)-2-fluoro-5-(1-morpholinocarbonyl)-4-oxo-4H-quino[2,3,4-i,j][1,4]benzoxazine trifluoracetate salt]
IC50 [1]: 6 µg/mL
IC50 [2]: 49.4 µg/mL
IC50 (B16F10 mouse melanoma): 0.56 µg/mL
IC50 [3]: 1.4 µg/mL
IC50 [4]: 0.54 µg/mL

C[C@H](N)C(=O)N[C@@H](C)C(=O)NC1CCN(c2c(F)cc3c(=O)c(C(=O)O)cn4c3c2Oc2ccccc2-4)C1 (stereo partly drawn) [Example 37, 1-(3-Alanylalanylaminopyrrolidin-1-yl)-2-fluoro-4-oxo-4H-quino[2,3,4-i,j][1,4]benzoxazine-5-carboxylic acid hydrochloride]
% MST(T/C) ([5]; 2.5 mg/kg IP days 1-9): 147%
MST ([5]; 2.5 mg/kg IP days 1-9): 30.3
% MST(T/C) ([5]; 5 mg/kg IP days 1-9): 174%
MST ([5]; 5 mg/kg IP days 1-9): 36.0
% MST(T/C) [5, 7]: 195%
MST [5, 7]: 40.2
test animals that survived the trial ([5]; 20 mg/kg (footnote a)): Three of ten test animals survived the trial
% MST(T/C) ([5]; 20 mg/kg IP days 1-9): 197%
MST ([5]; 20 mg/kg IP days 1-9): 40.7
improvement in survival time ([5]; C-26 IP, in words): significant improvement in survival time
% MTM(T/C) ([6]; day 11, 2.5 mg/kg): 97%
MTM ([6]; day 11, 2.5 mg/kg): 302 mg
% MTM(T/C) ([6]; day 11, 5 mg/kg): 66%
MTM ([6]; day 11, 5 mg/kg): 205 mg
% MTM(T/C) [6, 8]: 24%
MTM [6, 8]: 74 mg
% MTM(T/C) ([6]; day 11, 20 mg/kg): 0%
MTM ([6]; day 11, 20 mg/kg): 0 mg
% MTM(T/C) ([6]; day 21, 2.5 mg/kg): 79%
MTM ([6]; day 21, 2.5 mg/kg): 2617 mg
% MTM(T/C) ([6]; day 21, 5 mg/kg): 75%
MTM ([6]; day 21, 5 mg/kg): 2462 mg
% MTM(T/C) [6, 9]: 41%
MTM [6, 9]: 1336 mg
% MTM(T/C) ([6]; day 21, 20 mg/kg): 5%
MTM ([6]; day 21, 20 mg/kg): 169 mg
activity against tumor implanted subcutaneously ([6]; days 11 and 21, in words): significantly active
solubility (Aqueous solubility): 28.2 mg/mL
test animals that survived the trial (M5076 ovarian sarcoma; 12.5 mg/kg (footnote b)): One of ten test animals survived the trial
% MST(T/C) (M5076 ovarian sarcoma; 12.5 mg/kg IP days 1-9): 215%
MST (M5076 ovarian sarcoma; 12.5 mg/kg IP days 1-9): 44.6
Toxicity due to the test compound (M5076 ovarian sarcoma; 25 mg/kg (footnote a)): Toxicity due to the test compound noted
% MST(T/C) (M5076 ovarian sarcoma; 25 mg/kg IP days 1-9): 45%
MST (M5076 ovarian sarcoma; 25 mg/kg IP days 1-9): 9.3
Toxicity due to the test compound (M5076 ovarian sarcoma; 50 mg/kg (footnote a)): Toxicity due to the test compound noted
% MST(T/C) (M5076 ovarian sarcoma; 50 mg/kg IP days 1-9): 21%
MST (M5076 ovarian sarcoma; 50 mg/kg IP days 1-9): 4.4
Toxicity due to the test compound (M5076 ovarian sarcoma; 100 mg/kg (footnote a)): Toxicity due to the test compound noted
% MST(T/C) (M5076 ovarian sarcoma; 100 mg/kg IP days 1-9): 15%
MST (M5076 ovarian sarcoma; 100 mg/kg IP days 1-9): 3.2
improvement in survival time (M5076 ovarian sarcoma; M5076 IP, in words): significant improvement in survival time

CCC[C@H](NC(=O)[C@@H](N)CCC)C(=O)NC1CCN(c2c(F)cc3c(=O)c(C(=O)O)cn4c3c2Oc2ccccc2-4)C1 (stereo partly drawn) [Example 38, 1-(3-Norvalylnorvalylaminopyrrolidin-1-yl)-2-fluoro-4-oxo-4H-quino[2,3,4-i,j][1,4]benzoxazine-5-carboxylic acid hydrochloride]
solubility (Aqueous solubility): 11.1 mg/mL

CCC[C@H](N)C(=O)N[C@@H](C)C(=O)NC1CCN(c2c(F)cc3c(=O)c(C(=O)O)cn4c3c2Oc2ccccc2-4)C1 (stereo partly drawn) [Example 40, 1-(3-Norvalylalanylaminopyrrolidin-1-yl)-2-fluoro-4-oxo-4H-quino[2,3,4-i,j][1,4]benzoxazine-5-carboxylic acid hydrochloride]
solubility (Aqueous solubility): > 47.8 mg/mL
